Measured values as given in PubChem BioAssay AID1259407 (Chemical Carcinogenesis Research Information System (CCRIS), 2018).
Calls of active or inactive are those of the source. The rule behind the calls is not given here.

Test system: CCRIS mutagenicity, Ames/micronucleus/aberration tests
Assay: CCRIS mutagenicity studies

Measured: mutagenic call

Cc1ccc(Br)cc1
inactive: Test System: AMES SALMONELLA TYPHIMURIUM, Strain/Indicator: TA97, Metabolic Activation: HAMSTER, LIVER, S-9, AROCLOR 1254 (10%), Method: PREINCUBATION inactive; negative | Test System: AMES SALMONELLA TYPHIMURIUM, Strain/Indicator: TA97, Metabolic Activation: HAMSTER, LIVER, S-9, AROCLOR 1254 (30%), Method: PREINCUBATION inactive; negative | Test System: AMES SALMONELLA TYPHIMURIUM, Strain/Indicator: TA97, Metabolic Activation: NONE, Method: PREINCUBATION inactive; negative | Test System: AMES SALMONELLA TYPHIMURIUM, Strain/Indicator: TA97, Metabolic Activation: RAT, LIVER, S-9, AROCLOR 1254 (10%), Method: PREINCUBATION inactive; negative | Test System: AMES SALMONELLA TYPHIMURIUM, Strain/Indicator: TA97, Metabolic Activation: RAT, LIVER, S-9, AROCLOR 1254 (30%), Method: PREINCUBATION inactive; negative | Test System: AMES SALMONELLA TYPHIMURIUM, Strain/Indicator: TA98, Metabolic Activation: HAMSTER, LIVER, S-9, AROCLOR 1254 (10%), Method: PREINCUBATION inactive; negative | Test System: AMES SALMONELLA TYPHIMURIUM, Strain/Indicator: TA98, Metabolic Activation: HAMSTER, LIVER, S-9, AROCLOR 1254 (30%), Method: PREINCUBATION inactive; negative | Test System: AMES SALMONELLA TYPHIMURIUM, Strain/Indicator: TA98, Metabolic Activation: NONE, Method: PREINCUBATION inactive; negative | Test System: AMES SALMONELLA TYPHIMURIUM, Strain/Indicator: TA98, Metabolic Activation: RAT, LIVER, S-9, AROCLOR 1254 (10%), Method: PREINCUBATION inactive; negative | Test System: AMES SALMONELLA TYPHIMURIUM, Strain/Indicator: TA98, Metabolic Activation: RAT, LIVER, S-9, AROCLOR 1254 (30%), Method: PREINCUBATION inactive; negative | Test System: AMES SALMONELLA TYPHIMURIUM, Strain/Indicator: TA100, Metabolic Activation: HAMSTER, LIVER, S-9, AROCLOR 1254 (10%), Method: PREINCUBATION inactive; negative | Test System: AMES SALMONELLA TYPHIMURIUM, Strain/Indicator: TA100, Metabolic Activation: HAMSTER, LIVER, S-9, AROCLOR 1254 (30%), Method: PREINCUBATION inactive; negative | Test System: AMES SALMONELLA TYPHIMURIUM, Strain/Indicator: TA100, Metabolic Activation: NONE, Method: PREINCUBATION inactive; negative | Test System: AMES SALMONELLA TYPHIMURIUM, Strain/Indicator: TA100, Metabolic Activation: RAT, LIVER, S-9, AROCLOR 1254 (10%), Method: PREINCUBATION inactive; negative | Test System: AMES SALMONELLA TYPHIMURIUM, Strain/Indicator: TA100, Metabolic Activation: RAT, LIVER, S-9, AROCLOR 1254 (30%), Method: PREINCUBATION inactive; negative | Test System: AMES SALMONELLA TYPHIMURIUM, Strain/Indicator: TA1535, Metabolic Activation: HAMSTER, LIVER, S-9, AROCLOR 1254 (10%), Method: PREINCUBATION inactive; negative | Test System: AMES SALMONELLA TYPHIMURIUM, Strain/Indicator: TA1535, Metabolic Activation: HAMSTER, LIVER, S-9, AROCLOR 1254 (30%), Method: PREINCUBATION inactive; negative | Test System: AMES SALMONELLA TYPHIMURIUM, Strain/Indicator: TA1535, Metabolic Activation: NONE, Method: PREINCUBATION inactive; negative | Test System: AMES SALMONELLA TYPHIMURIUM, Strain/Indicator: TA1535, Metabolic Activation: RAT, LIVER, S-9, AROCLOR 1254 (10%), Method: PREINCUBATION inactive; negative | Test System: AMES SALMONELLA TYPHIMURIUM, Strain/Indicator: TA1535, Metabolic Activation: RAT, LIVER, S-9, AROCLOR 1254 (30%), Method: PREINCUBATION inactive; negative | Test System: AMES SALMONELLA TYPHIMURIUM, Strain/Indicator: TA1537, Metabolic Activation: HAMSTER, LIVER, S-9, AROCLOR 1254 (30%), Method: PREINCUBATION inactive; negative | Test System: AMES SALMONELLA TYPHIMURIUM, Strain/Indicator: TA1537, Metabolic Activation: NONE, Method: PREINCUBATION inactive; negative | Test System: AMES SALMONELLA TYPHIMURIUM, Strain/Indicator: TA1537, Metabolic Activation: RAT, LIVER, S-9, AROCLOR 1254 (30%), Method: PREINCUBATION inactive; negative

CN(C)N=Nc1ccc(Br)cc1
active: Test System: AMES SALMONELLA TYPHIMURIUM, Strain/Indicator: TA98, Metabolic Activation: MOUSE, LIVER, S-9, POLYCHLORINATED BIPHENYLS, Method: PREINCUBATION active; positive | Test System: AMES SALMONELLA TYPHIMURIUM, Strain/Indicator: TA1535, Metabolic Activation: MOUSE, LIVER, S-9, POLYCHLORINATED BIPHENYLS, Method: PREINCUBATION active; positive | Test System: AMES SALMONELLA TYPHIMURIUM, Strain/Indicator: TA1537, Metabolic Activation: MOUSE, LIVER, S-9, POLYCHLORINATED BIPHENYLS, Method: PREINCUBATION active; positive | Test System: AMES SALMONELLA TYPHIMURIUM, Strain/Indicator: TA1537, Metabolic Activation: MOUSE, LIVER, S-9, POLYCHLORINATED BIPHENYLS, Method: STANDARD PLATE active; positive | Test System: AMES SALMONELLA TYPHIMURIUM, Strain/Indicator: TA1537, Metabolic Activation: NONE, Method: STANDARD PLATE active; positive | Test System: AMES SALMONELLA TYPHIMURIUM, Strain/Indicator: TA1538, Metabolic Activation: MOUSE, LIVER, S-9, POLYCHLORINATED BIPHENYLS, Method: STANDARD PLATE active; positive
inactive: Test System: AMES SALMONELLA TYPHIMURIUM, Strain/Indicator: TA92, Metabolic Activation: MOUSE, LIVER, S-9, POLYCHLORINATED BIPHENYLS, Method: PREINCUBATION inactive; negative | Test System: AMES SALMONELLA TYPHIMURIUM, Strain/Indicator: TA92, Metabolic Activation: MOUSE, LIVER, S-9, POLYCHLORINATED BIPHENYLS, Method: STANDARD PLATE inactive; negative | Test System: AMES SALMONELLA TYPHIMURIUM, Strain/Indicator: TA92, Metabolic Activation: NONE, Method: STANDARD PLATE inactive; negative | Test System: AMES SALMONELLA TYPHIMURIUM, Strain/Indicator: TA97, Metabolic Activation: MOUSE, LIVER, S-9, POLYCHLORINATED BIPHENYLS, Method: PREINCUBATION inactive; negative | Test System: AMES SALMONELLA TYPHIMURIUM, Strain/Indicator: TA97, Metabolic Activation: MOUSE, LIVER, S-9, POLYCHLORINATED BIPHENYLS, Method: STANDARD PLATE inactive; negative | Test System: AMES SALMONELLA TYPHIMURIUM, Strain/Indicator: TA97, Metabolic Activation: NONE, Method: STANDARD PLATE inactive; negative | Test System: AMES SALMONELLA TYPHIMURIUM, Strain/Indicator: TA98, Metabolic Activation: MOUSE, LIVER, S-9, POLYCHLORINATED BIPHENYLS, Method: STANDARD PLATE inactive; negative | Test System: AMES SALMONELLA TYPHIMURIUM, Strain/Indicator: TA98, Metabolic Activation: NONE, Method: STANDARD PLATE inactive; negative | Test System: AMES SALMONELLA TYPHIMURIUM, Strain/Indicator: TA100, Metabolic Activation: MOUSE, LIVER, S-9, POLYCHLORINATED BIPHENYLS, Method: PREINCUBATION inactive; negative | Test System: AMES SALMONELLA TYPHIMURIUM, Strain/Indicator: TA100, Metabolic Activation: MOUSE, LIVER, S-9, POLYCHLORINATED BIPHENYLS, Method: STANDARD PLATE inactive; negative | Test System: AMES SALMONELLA TYPHIMURIUM, Strain/Indicator: TA100, Metabolic Activation: NONE, Method: STANDARD PLATE inactive; negative | Test System: AMES SALMONELLA TYPHIMURIUM, Strain/Indicator: TA1535, Metabolic Activation: MOUSE, LIVER, S-9, POLYCHLORINATED BIPHENYLS, Method: STANDARD PLATE inactive; negative | Test System: AMES SALMONELLA TYPHIMURIUM, Strain/Indicator: TA1535, Metabolic Activation: NONE, Method: STANDARD PLATE inactive; negative | Test System: AMES SALMONELLA TYPHIMURIUM, Strain/Indicator: TA1538, Metabolic Activation: MOUSE, LIVER, S-9, POLYCHLORINATED BIPHENYLS, Method: PREINCUBATION inactive; negative | Test System: AMES SALMONELLA TYPHIMURIUM, Strain/Indicator: TA1538, Metabolic Activation: NONE, Method: STANDARD PLATE inactive; negative

C[C@]12CCc3c(ccc4cc(O)ccc34)[C@@H]1CCC2=O
inactive: Test System: UDS RAT HEPATOCYTES, Strain/Indicator: THY INCORP (18-20 HR), Metabolic Activation: NONE, Method: LIQUID SCINTILLATION COUNTING inactive; negative
